Assay results as given in paper PMC11054459 (Molecules, 2024).
Residues, ends and D or L forms follow the SMILES beside them. No end group written: not given here. *: point of attachment. X1 = NC(=O)C[C@H](N=C[C@H](O)[C@@H](O)[C@@H](O)[C@H](O)CO)C(=O)*; X2 = NC(=O)C[C@H](N=C[C@H](O)[C@@H](O)[C@H](O)[C@H](O)CO)C(=O)*

How the values were obtained:
[1] = target: hPD-1/hPD-L1 interaction (CHO-K1-hPD-1 cells, hPD-L1 protein) (Homo sapiens, UniProt Q9NZQ7); test: Peptide blocking assay (flow cytometry); format: cell-based; settings: CHO-K1-hPD-1 cells 3 × 10^5 per sample, 50 ng hPD-L1, peptide + protein 30 min, + cells 30 min, on ice, 200 μM to 1.6 μM, means ± SEMs from three independent biological triplicates, read-out: IC50, blocking of PD-1/PD-L1 interaction
Protocol: The interaction between PD-1 and PD-L1 plays a pivotal role in suppressing T-cell function, and disrupting this interaction has emerged as a viable therapeutic strategy in cancer treatment. Thus, we investigated the inhibitory potential of D-glu-^LPPA-1 and D-gal-^LPPA-1 on the PD-1/PD-L1 interaction. To conduct the experiment, CHO-K1-hPD-1 cells were harvested at a density of 3 × 10^5 cells per sample. Peptides were solubilized to a concentration of 200 μM and serially diluted before coincubation with 50 ng of the hPD-L1 protein for 30 min. The protein–peptide mixture was introduced into CHO-K1-hPD-1 cells, which were then coincubated for an additional 30 min. The anti-Fc PE antibody was then added and incubated for 30 min. Flow cytometry was used to evaluate the efficacy of the peptides in blocking the hPD-1/hPD-L1 interaction.
For subsequent multi-concentration blocking assays, peptides were prepared in concentration gradients spanning 200 μM, 100 μM, 50 μM, 25 μM, 12.5 μM, and 6.25 μM. Peptides at different concentrations were incubated with hPD-L1 (mPD-L1) protein (50 ng) on ice for 30 min. Subsequently, the mixture was added to CHO-K1-hPD-1 or CHO-K1-mPD-1 cells and coincubated on ice for 30 min. […] The ability of the peptide to block the PD-1/PD-L1 interaction was assessed using flow cytometry.

[2] = Body weight of MC38 tumor-bearing mice; format: in vivo, mouse; settings: 1 and 3 mg/kg i.p. once daily for two weeks
Protocol: Animal experiments were approved by the Zhengzhou University Ethics Committee. MC38 cells (1 × 10^6) were subcutaneously inoculated into C57BL/N mice. The MC38 tumor-bearing mice were randomly allocated to three groupsn (n = 5 per group): a control group (NS, normal saline containing 1% DMSO); a D-gal-^LPPA-1 peptide group (1 mg/kg); and a D-gal-^LPPA-1 peptide group (3 mg/kg). Daily intraperitoneal injections of the peptide were initiated when the tumor volume reached 50–90 mm^3. The tumor dimensions, including length, width, and height, were measured, and tumor volume was calculated using the following formula:V = 1/2 × A (length) × B (width) × C (height).

mouse PD-L1 (mPD-L1) = mouse PD-L1 (mPD-L1) (Mus musculus, UniProt Q9EP73); test: MST binding assay, mPD-L1; settings: microscale thermophoresis (MST); mPD-L1-His 800 nM, RED-NHS dye, PBST; peptide 400 μM to 0.012 μM; triplicate, mean ± SEM; read-out: dissociation constant (KD), mPD-L1
Protocol: The concentrations of hPD-L1-His and mPD-L1-His proteins were adjusted to 200 nM and 800 nM, respectively, utilizing PBST as the diluent. Simultaneously, the concentration of RED-NHS676 dye was diluted to 100 nM in PBST. Subsequently, protein and dye were subjected to co-incubation at a volumetric ratio of 1:1 for a duration of 30 min, thereby facilitating the generation of labeled proteins. To establish peptide gradients, a progressive dilution was initiated from an initial concentration of 400 μM, eventually reaching 0.012 μM. Following this preparation, a homogenous amalgamation comprising 5 μL of labeled protein and 5 μL of small molecule diluent was extracted for further experimentation. Subsequently, the samples were transferred to standard capillary tubes and analyzed by an MST instrument (Nano Temper, Monolith NT.115, München, Germany).

[3] = test system: heart, liver, spleen, lung, kidney of MC38 tumor-bearing mice; test: H&E staining of major organs; format: in vivo, mouse; settings: 1 and 3 mg/kg i.p., vs. normal saline control
Protocol: Tumor tissue and heart, liver, spleen, lung, and kidney tissues were isolated from MC38 tumor-bearing mice and fixed in 4.0% paraformaldehyde. The samples were subsequently embedded in paraffin and subjected to hematoxylin and eosin staining. The results were analyzed using ImageJ1 software (NIH, Bethesda, MD, USA).

hPD-L1-His = hPD-L1-His (human, UniProt Q9NZQ7 19-290, labelled with RED-NHS676 dye); test: MST; His-tagged PD-L1 (hPD-L1 200 nM, mPD-L1 800 nM) labelled 1:1 with 100 nM RED-NHS676 dye in PBST for 30 min; peptide diluted from 400 μM to 0.012 μM; standard capillaries, Monolith NT.115; settings: both partners purified
mPD-L1-His = mPD-L1-His (mouse, UniProt Q9EP73 19-290, labelled with RED-NHS676 dye); test: as above; settings: both partners purified
hPD-L1-Fc = target: T1, hPD-L1-Fc (human, UniProt Q9NZQ7 19-238); test: flow cytometry on cells; blocking assay: peptide in serial dilution from 200 μM pre-incubated with 50 ng hPD-L1-Fc on ice for 30 min, mixture added to CHO-K1-hPD-1 cells (3 x 10^5 per sample) for 30 min, detected with anti-Fc PE antibody; settings: both partners purified
T1 construct: human PD-L1 (hPD-L1), recombinant protein fused to Fc; also called hPD-L1 protein
T1 sequence (Q9NZQ7 19-238): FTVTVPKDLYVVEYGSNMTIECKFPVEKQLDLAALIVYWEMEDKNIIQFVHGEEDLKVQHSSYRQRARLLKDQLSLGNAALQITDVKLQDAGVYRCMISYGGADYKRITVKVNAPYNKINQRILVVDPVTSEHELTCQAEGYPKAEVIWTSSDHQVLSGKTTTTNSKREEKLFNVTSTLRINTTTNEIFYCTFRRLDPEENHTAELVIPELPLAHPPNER

mouse PD-L1 (mPD-L1), sequence (Q9EP73 19-290): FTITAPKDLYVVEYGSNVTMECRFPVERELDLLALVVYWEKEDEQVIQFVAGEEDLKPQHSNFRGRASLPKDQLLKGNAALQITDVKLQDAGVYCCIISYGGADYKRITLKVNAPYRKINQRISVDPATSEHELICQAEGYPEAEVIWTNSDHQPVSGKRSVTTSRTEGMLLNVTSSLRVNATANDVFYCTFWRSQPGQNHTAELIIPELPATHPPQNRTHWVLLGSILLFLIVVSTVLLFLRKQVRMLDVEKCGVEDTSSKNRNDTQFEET
mPD-L1-His, sequence (Q9EP73 19-290): as above
hPD-L1-His, sequence (Q9NZQ7 19-290): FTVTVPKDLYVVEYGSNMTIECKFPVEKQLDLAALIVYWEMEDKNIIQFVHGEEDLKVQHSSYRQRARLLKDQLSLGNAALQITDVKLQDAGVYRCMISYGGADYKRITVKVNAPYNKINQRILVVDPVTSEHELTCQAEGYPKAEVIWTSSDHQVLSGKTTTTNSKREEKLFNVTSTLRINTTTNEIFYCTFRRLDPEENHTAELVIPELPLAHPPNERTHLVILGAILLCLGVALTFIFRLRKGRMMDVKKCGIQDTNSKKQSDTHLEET
hPD-1/hPD-L1 interaction (CHO-K1-hPD-1 cells, hPD-L1 protein), sequence (Q9NZQ7 19-238 limits assumed): as the sequence (Q9NZQ7 19-238) above

`C[C@@H](O)[C@H](NC(=O)[C@@H]1CCCN1C(=O)[C@H](CCCCN)NC(=O)[C@H](CO)NC(=O)[C@H](Cc1ccc(O)cc1)NC(=O)[C@H](CC(N)=O)N=C[C@H](O)[C@@H](O)[C@H](O)[C@H](O)CO)C(=O)N[C@@H](CC(=O)O)C(=O)N[C@@H](CCCNC(=N)N)C(=O)N[C@@H](CCC(N)=O)C(=O)N[C@@H](Cc1ccc(O)cc1)C(=O)N[C@@H](Cc1c[nH]cn1)C(=O)N[C@@H](Cc1ccccc1)C(=O)O` [D-glu-^LPPA-1] (X2-YSKPTDRQYHF-OH) gave an IC50 [1] of 75.5 ± 20.3 µM.

For `C[C@@H](O)[C@H](NC(=O)[C@@H]1CCCN1C(=O)[C@H](CCCCN)NC(=O)[C@H](CO)NC(=O)[C@H](Cc1ccc(O)cc1)NC(=O)[C@H](CC(N)=O)N=C[C@H](O)[C@@H](O)[C@@H](O)[C@H](O)CO)C(=O)N[C@@H](CC(=O)O)C(=O)N[C@@H](CCCNC(=N)N)C(=O)N[C@@H](CCC(N)=O)C(=O)N[C@@H](Cc1ccc(O)cc1)C(=O)N[C@@H](Cc1c[nH]cn1)C(=O)N[C@@H](Cc1ccccc1)C(=O)O` [D-gal-^LPPA-1] (X1-YSKPTDRQYHF-OH), the body weight [2] was “no significant changes in body weight”, the Kd (mouse PD-L1 (mPD-L1)) was 0.015 ± 0.006 µM and the “organ toxicity (H&E staining)” value [3] was “no apparent toxicity observed”.

B1: D-gal-^LPPA-1 (peptide)
peptide: N(D‑galactose)YSKPTDRQYHF
notes: L-type peptide ^LPPA-1, L-amino-acid analogue of the PD-L1-targeting D-peptide ^DPPA-1; printed in three-letter code; source: synthetic peptide (Fmoc solid-phase synthesis, purified by reverse-phase HPLC)
For B1, the Kd (hPD-L1-His) was 0.047 µM, the Kd (mPD-L1-His) was 0.0149 µM and the IC50 (hPD-L1-Fc) was 101 µM.

B2: D-glu-^LPPA-1 (peptide)
peptide: N(D‑glucose)YSKPTDRQYHF
notes: as for B1
Work on B2 yielded an IC50 (hPD-L1-Fc) of 75 µM.
